Reference: patent US20210214375A1 (LUNDBECK LA JOLLA RESEARCH CENTER, INC., priority 2017, published 2021)
Read-outs that look alike come from different tables or passages of the source.

Target: T1, MAGL (Homo sapiens, UniProt Q99685)
T1 construct: Proteomes (human prefrontal cortex or cell membrane fractions); from tissue
T1 sequence (Q99685 1-303): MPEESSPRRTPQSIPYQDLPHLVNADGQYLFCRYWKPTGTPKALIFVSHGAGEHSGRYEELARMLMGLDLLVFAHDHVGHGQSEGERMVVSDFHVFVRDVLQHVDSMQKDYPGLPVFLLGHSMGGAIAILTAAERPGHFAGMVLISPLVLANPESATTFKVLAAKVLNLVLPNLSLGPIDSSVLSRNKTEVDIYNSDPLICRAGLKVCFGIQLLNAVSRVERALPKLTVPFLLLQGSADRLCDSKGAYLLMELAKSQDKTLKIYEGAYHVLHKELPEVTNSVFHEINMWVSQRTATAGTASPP
Assay: In vitro competitive activity-based protein profiling (gel-based, FP-Rh or HT-01 probe)
Assay type: biochemical
Experimental: Compounds are tested to assess their MAGL and serine hydrolase activity using the following in vitro and in vivo assays.
Proteomes (human prefrontal cortex or cell membrane fractions) (50 μL, 1.0 mg/mL total protein concentration) were preincubated with varying concentrations of inhibitors at 37° C. After 30 min, FP—Rh or HT-01 (1.0 μL, 50 μM in DMSO) was added and the mixture was incubated for another 30 min at room temperature. Reactions were quenched with SDS loading buffer (15 μL-4×) and run on SDS-PAGE.

[1] = PC3 proteome, read-out: IC50 MGLL PC3 (Human)
[2] = PFC (prefrontal cortex) proteome
[3] = PFC (prefrontal cortex) proteome, read-out: IC50 MGLL PFC (Human)

| IC50 [1] | % Inh MGLL PFC (Human, μM) [2] | IC50 [3] | Structure (SMILES) |
| --- | --- | --- | --- |
| < 100 nM | ### (### is ≥ 75%) | < 100 nM | O=C(O)CN1CCN(c2cc(CN3CCCC34CCN(C(=O)OC(C(F)(F)F)C(F)(F)F)CC4)cc(C(F)(F)F)c2)CC1 [Example 2, 2-(4-(3-((8-(((1,1,1,3,3,3-Hexafluoropropan-2-yl)oxy)carbonyl)-1,8-diazaspiro[4.5]decan-1-yl)methyl)-5-(trifluoromethyl)phenyl)piperazin-1-yl)acetic acid] |
| < 100 nM | ### (### is ≥ 75%) |  | O=C(O)C1CCN(Cc2cc(Cl)cc(C(=O)N3CCCC34CCN(C(=O)OC(C(F)(F)F)C(F)(F)F)CC4)c2)CC1 [Example 11, 1-(3-Chloro-5-(8-(((1,1,1,3,3,3-hexafluoropropan-2-yl)oxy)carbonyl)-1,8-diazaspiro[4.5]decane-1-carbonyl)benzyl)piperidine-4-carboxylic acid] |
| < 100 nM |  |  | N#Cc1ccc(C(=O)N2CCC3(CCN(C(=O)OC(C(F)(F)F)C(F)(F)F)CC3)C2)cc1C(F)(F)F [Example 12, 1,1,1,3,3,3-Hexafluoropropan-2-yl 2-(4-cyano-3-(trifluoromethyl)benzoyl)-2,8-diazaspiro[4.5]decane-8-carboxylate] |
| < 100 nM |  |  | O=C(O)c1cc(CN2CC3(CCN(C(=O)OC(C(F)(F)F)C(F)(F)F)CC3)C2)ccc1C(F)(F)F [Example 21, 5-((7-(((1,1,1,3,3,3-Hexafluoropropan-2-yl)oxy)carbonyl)-2,7-diazaspiro[3.5]nonan-2-yl)methyl)-2-(trifluoromethyl)benzoic acid] |
| < 100 nM |  |  | CC1(C(=O)O)CN(c2cc(CN3CC4(CCN(C(=O)OC(C(F)(F)F)C(F)(F)F)CC4)C3)cc(C(F)(F)F)c2)CCO1 (stereo not shown) [Example 22, 4-(3-((7-(((1,1,1,3,3,3-Hexafluoropropan-2-yl)oxy)carbonyl)-2,7-diazaspiro[3.5]nonan-2-yl)methyl)-5-(trifluoromethyl)phenyl)-2-methylmorpholine-2-carboxylic acid] |
| < 100 nM |  |  | CN(Cc1ccc(C(F)(F)F)cc1-c1nnn[nH]1)C1(C)CCN(C(=O)OC(C(F)(F)F)C(F)(F)F)CC1 [Example 24, 1,1,1,3,3,3-Hexafluoropropan-2-yl 4-((2-(1H-tetrazol-5-yl)-4-(trifluoromethyl)benzyl)(methyl)amino)-4-methylpiperidine-1-carboxylate] |
| < 100 nM | ### (### is ≥ 75%) |  | CC1(OCc2cc(CN3CCC(C(=O)O)CC3)cc(C(F)(F)F)c2)CCN(C(=O)OC(C(F)(F)F)C(F)(F)F)CC1 [Example 25, 1-(3-(((1-(((1,1,1,3,3,3-Hexafluoropropan-2-yl)oxy)carbonyl)-4-methylpiperidin-4-yl)oxy)methyl)-5-(trifluoromethyl)benzyl)piperidine-4-carboxylic acid] |
| < 100 nM | ### (### is ≥ 75%) | < 100 nM | CN(Cc1ccc(C(F)(F)F)cc1N1CCN(CC(=O)O)CC1)C1(C)CCN(C(=O)OC(C(F)(F)F)C(F)(F)F)CC1 [Example 26, 2-(4-(2-(((1-(((1,1,1,3,3,3-Hexafluoropropan-2-yl)oxy)carbonyl)-4-methylpiperidin-4-yl)(methyl)amino)methyl)-5-(trifluoromethyl)phenyl)piperazin-1-yl)acetic acid] |
| < 100 nM |  | < 100 nM | CN(Cc1ccc(C(F)(F)F)cc1N1CC2CC1CN2CC(=O)O)C1(C)CCN(C(=O)OC(C(F)(F)F)C(F)(F)F)CC1 (stereo not shown) [Example 27, 2-(5-(2-(((1-(((1,1,1,3,3,3-Hexafluoropropan-2-yl)oxy)carbonyl)-4-methylpiperidin-4-yl)(methyl)amino)methyl)-5-(trifluoromethyl)phenyl)-2,5-diazabicyclo[2.2.1]heptan-2-yl)acetic acid] |
| < 100 nM |  |  | O=C(O)C1CN(c2cc(CN3CC4(CCN(C(=O)OC(C(F)(F)F)C(F)(F)F)CC4)C3)cc(C(F)(F)F)c2)CCO1 (stereo not shown) [Example 100, 4-(3-((7-(((1,1,1,3,3,3-Hexafluoropropan-2-yl)oxy)carbonyl)-2,7-diazaspiro[3.5]nonan-2-yl)methyl)-5-(trifluoromethyl)phenyl)morpholine-2-carboxylic acid] |
| < 100 nM |  |  | O=C(O)C1CCN(c2cc(C(F)(F)F)ccc2CN2CC3(CCN(C(=O)OC(C(F)(F)F)C(F)(F)F)CC3)C2)C1 (stereo not shown) [Example 101, 1-(2-((7-(((1,1,1,3,3,3-Hexafluoropropan-2-yl)oxy)carbonyl)-2,7-diazaspiro[3.5]nonan-2-yl)methyl)-5-(trifluoromethyl)phenyl)pyrrolidine-3-carboxylic acid] |
| < 100 nM |  |  | O=C(O)C1CCN(c2cc(C(F)(F)F)ccc2CN2CC3(CCN(C(=O)OC(C(F)(F)F)C(F)(F)F)CC3)C2)CC1 [Example 102, 1-(2-((7-(((1,1,1,3,3,3-Hexafluoropropan-2-yl)oxy)carbonyl)-2,7-diazaspiro[3.5]nonan-2-yl)methyl)-5-(trifluoromethyl)phenyl)piperidine-4-carboxylic acid] |
| < 100 nM |  |  | O=C(O)C1COCCN1c1cc(CN2CC3(CCN(C(=O)OC(C(F)(F)F)C(F)(F)F)CC3)C2)cc(C(F)(F)F)c1 (stereo not shown) [Example 103, 4-(3-((7-(((1,1,1,3,3,3-Hexafluoropropan-2-yl)oxy)carbonyl)-2,7-diazaspiro[3.5]nonan-2-yl)methyl)-5-(trifluoromethyl)phenyl)morpholine-3-carboxylic acid] |
| < 100 nM |  |  | O=C(O)[C@@H]1CCCN(c2cc(C(F)(F)F)ccc2CN2CC3(CCN(C(=O)OC(C(F)(F)F)C(F)(F)F)CC3)C2)C1 [Example 107, (R)-1-(2-((7-(((1,1,1,3,3,3-Hexafluoropropan-2-yl)oxy)carbonyl)-2,7-diazaspiro[3.5]nonan-2-yl)methyl)-5-(trifluoromethyl)phenyl)piperidine-3-carboxylic acid] |
| < 100 nM |  |  | O=C(OC(C(F)(F)F)C(F)(F)F)N1CCC2(CC1)CCN(C(=O)c1ccc(C(F)(F)F)c(Cl)c1)C2 [Example 109, 1,1,1,3,3,3-Hexafluoropropan-2-yl 2-(3-chloro-4-(trifluoromethyl)benzoyl)-2,8-diazaspiro[4.5]decane-8-carboxylate] |
| < 100 nM |  |  | O=C(OC(C(F)(F)F)C(F)(F)F)N1CCC2(CC1)CCN(C(=O)c1cc(Cl)cc(C(F)(F)F)c1)C2 [Example 110, 1,1,1,3,3,3-Hexafluoropropan-2-yl 2-(3-chloro-5-(trifluoromethyl)benzoyl)-2,8-diazaspiro[4.5]decane-8-carboxylate] |
| < 100 nM |  |  | O=C(O)[C@H]1CCCN(c2cc(C(F)(F)F)ccc2CN2CC3(CCN(C(=O)OC(C(F)(F)F)C(F)(F)F)CC3)C2)C1 [Example 111, (S)-1-(2-((7-(((1,1,1,3,3,3-hexafluoropropan-2-yl)oxy)carbonyl)-2,7-diazaspiro[3.5]nonan-2-yl)methyl)-5-(trifluoromethyl)phenyl)piperidine-3-carboxylic acid] |
| < 100 nM |  |  | CC1(C(=O)O)CCN(c2cc(C(F)(F)F)ccc2CN2CC3(CCN(C(=O)OC(C(F)(F)F)C(F)(F)F)CC3)C2)C1 (stereo not shown) [Example 115, 1-(2-((7-(((1,1,1,3,3,3-Hexafluoropropan-2-yl)oxy)carbonyl)-2,7-diazaspiro[3.5]nonan-2-yl)methyl)-5-(trifluoromethyl)phenyl)-3-methylpyrrolidine-3-carboxylic acid] |
